Results as given in ChEMBL document CHEMBL5291721, “A preclinical secondary pharmacology resource illuminates target-adverse drug reaction associations of marketed drugs” (Nat Commun, 2023).

Legend:
[1] = target: T1, Muscarinic acetylcholine receptor M1 (Homo sapiens, UniProt P11229); assay type: functional, cell-based
T1 sequence (P11229 whole entry): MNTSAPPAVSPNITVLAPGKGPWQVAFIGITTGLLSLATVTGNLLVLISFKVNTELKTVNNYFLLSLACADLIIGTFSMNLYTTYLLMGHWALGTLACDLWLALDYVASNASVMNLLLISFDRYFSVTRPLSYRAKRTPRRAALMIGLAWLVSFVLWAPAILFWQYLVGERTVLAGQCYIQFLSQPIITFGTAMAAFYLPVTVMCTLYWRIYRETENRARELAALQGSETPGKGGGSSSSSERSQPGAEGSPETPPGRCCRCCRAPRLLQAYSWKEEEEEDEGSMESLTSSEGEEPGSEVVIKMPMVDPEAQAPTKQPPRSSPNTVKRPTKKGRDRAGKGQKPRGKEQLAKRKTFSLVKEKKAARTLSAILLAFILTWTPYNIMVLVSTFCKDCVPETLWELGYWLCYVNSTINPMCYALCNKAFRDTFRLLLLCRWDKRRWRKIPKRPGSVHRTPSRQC

[2] = target: Delta-type opioid receptor (Homo sapiens, UniProt P41143)
[3] = target: T2, Alpha-2A adrenergic receptor (Homo sapiens, UniProt P08913); assay type: functional, cell-based
T2 sequence (P08913 whole entry): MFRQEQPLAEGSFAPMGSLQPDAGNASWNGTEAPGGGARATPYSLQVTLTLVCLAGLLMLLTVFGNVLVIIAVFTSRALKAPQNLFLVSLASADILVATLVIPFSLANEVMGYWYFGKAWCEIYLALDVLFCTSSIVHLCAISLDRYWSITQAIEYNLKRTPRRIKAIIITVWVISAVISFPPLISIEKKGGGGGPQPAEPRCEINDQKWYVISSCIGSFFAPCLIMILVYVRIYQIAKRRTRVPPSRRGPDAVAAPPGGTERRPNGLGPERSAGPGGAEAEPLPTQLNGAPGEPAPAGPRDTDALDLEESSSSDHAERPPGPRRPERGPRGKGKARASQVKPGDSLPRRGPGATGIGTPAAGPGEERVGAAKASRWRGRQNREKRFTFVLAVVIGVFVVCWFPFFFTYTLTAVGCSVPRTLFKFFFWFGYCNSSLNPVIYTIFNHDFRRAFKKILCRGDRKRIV

[4] = target: Sodium-dependent dopamine transporter (Homo sapiens, UniProt Q01959)
[5] = target: 3',5'-cyclic-AMP phosphodiesterase 4D (Homo sapiens, UniProt Q08499); assay type: functional
[6] = target: 5-hydroxytryptamine receptor 2A (Homo sapiens, UniProt P28223); assay type: functional, cell-based
[7] = target: T3, Cholecystokinin receptor type A (Homo sapiens, UniProt P32238)
T3 sequence (P32238 whole entry): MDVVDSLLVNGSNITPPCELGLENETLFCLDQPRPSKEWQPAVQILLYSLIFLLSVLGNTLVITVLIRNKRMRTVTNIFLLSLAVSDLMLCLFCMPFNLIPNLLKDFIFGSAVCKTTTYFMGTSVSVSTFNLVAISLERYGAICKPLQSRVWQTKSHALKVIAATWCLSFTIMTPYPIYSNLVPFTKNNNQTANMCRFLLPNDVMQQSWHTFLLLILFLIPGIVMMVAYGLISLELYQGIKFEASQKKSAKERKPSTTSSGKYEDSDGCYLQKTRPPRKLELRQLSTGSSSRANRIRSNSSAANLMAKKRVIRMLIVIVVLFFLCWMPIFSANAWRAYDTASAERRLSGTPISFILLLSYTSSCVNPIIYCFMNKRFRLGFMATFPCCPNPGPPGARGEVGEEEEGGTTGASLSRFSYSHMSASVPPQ

Vasopressin V1a receptor = Vasopressin V1a receptor (Homo sapiens, UniProt P37288)
[8] = target: Beta-1 adrenergic receptor (Homo sapiens, UniProt P08588); assay type: functional
Histamine H3 receptor = Histamine H3 receptor (Homo sapiens, UniProt Q9Y5N1)
[9] = target: T4, Alpha-1A adrenergic receptor (Homo sapiens, UniProt P35348); assay type: functional, cell-based
T4 sequence (P35348 whole entry): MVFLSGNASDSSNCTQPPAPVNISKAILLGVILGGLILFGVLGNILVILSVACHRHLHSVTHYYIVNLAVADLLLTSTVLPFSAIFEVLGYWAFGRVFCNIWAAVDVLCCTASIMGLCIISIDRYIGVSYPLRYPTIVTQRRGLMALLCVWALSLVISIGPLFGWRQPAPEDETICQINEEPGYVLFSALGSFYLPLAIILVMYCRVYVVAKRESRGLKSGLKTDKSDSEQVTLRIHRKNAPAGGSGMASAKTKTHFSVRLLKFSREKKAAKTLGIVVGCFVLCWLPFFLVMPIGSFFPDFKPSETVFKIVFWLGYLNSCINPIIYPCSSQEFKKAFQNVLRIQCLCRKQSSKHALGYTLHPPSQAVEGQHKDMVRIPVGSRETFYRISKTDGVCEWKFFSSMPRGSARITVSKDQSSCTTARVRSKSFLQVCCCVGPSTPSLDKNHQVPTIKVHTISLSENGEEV

[10] = target: Beta-2 adrenergic receptor (Homo sapiens, UniProt P07550); assay type: functional, cell-based
Note: assay procedure not described here.

3',5'-cyclic-AMP phosphodiesterase 4D, sequence (Q08499 whole entry): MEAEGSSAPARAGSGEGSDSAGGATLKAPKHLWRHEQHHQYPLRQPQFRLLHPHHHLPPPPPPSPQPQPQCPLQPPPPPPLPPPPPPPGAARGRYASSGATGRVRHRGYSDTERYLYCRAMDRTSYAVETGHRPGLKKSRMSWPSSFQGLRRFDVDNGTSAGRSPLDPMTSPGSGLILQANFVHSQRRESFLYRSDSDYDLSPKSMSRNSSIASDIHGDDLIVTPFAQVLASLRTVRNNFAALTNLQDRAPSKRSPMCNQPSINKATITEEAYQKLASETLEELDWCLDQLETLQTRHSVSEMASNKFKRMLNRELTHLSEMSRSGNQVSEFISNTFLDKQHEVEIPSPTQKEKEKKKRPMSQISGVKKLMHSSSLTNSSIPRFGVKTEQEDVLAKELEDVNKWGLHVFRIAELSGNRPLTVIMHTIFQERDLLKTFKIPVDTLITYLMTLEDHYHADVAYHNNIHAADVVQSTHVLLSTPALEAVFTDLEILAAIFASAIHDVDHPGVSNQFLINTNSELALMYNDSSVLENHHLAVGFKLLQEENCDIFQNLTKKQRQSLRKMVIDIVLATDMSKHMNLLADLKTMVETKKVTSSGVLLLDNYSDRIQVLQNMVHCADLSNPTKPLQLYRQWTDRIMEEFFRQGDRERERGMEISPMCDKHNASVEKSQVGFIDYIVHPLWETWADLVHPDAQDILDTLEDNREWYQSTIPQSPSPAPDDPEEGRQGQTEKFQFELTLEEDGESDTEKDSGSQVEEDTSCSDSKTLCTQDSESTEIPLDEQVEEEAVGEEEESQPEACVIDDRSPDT
Vasopressin V1a receptor, sequence (P37288 whole entry): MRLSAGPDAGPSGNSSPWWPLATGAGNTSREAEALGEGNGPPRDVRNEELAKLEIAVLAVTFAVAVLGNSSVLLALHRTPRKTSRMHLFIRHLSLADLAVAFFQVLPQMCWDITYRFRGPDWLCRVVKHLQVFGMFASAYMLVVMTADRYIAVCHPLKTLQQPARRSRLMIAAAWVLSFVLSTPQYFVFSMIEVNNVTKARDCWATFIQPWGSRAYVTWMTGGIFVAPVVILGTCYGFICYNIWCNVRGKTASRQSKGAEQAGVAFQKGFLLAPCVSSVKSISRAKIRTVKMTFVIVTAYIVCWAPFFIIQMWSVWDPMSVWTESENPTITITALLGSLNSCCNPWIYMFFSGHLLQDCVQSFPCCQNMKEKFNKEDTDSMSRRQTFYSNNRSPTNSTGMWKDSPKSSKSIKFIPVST
Histamine H3 receptor, sequence (Q9Y5N1 whole entry): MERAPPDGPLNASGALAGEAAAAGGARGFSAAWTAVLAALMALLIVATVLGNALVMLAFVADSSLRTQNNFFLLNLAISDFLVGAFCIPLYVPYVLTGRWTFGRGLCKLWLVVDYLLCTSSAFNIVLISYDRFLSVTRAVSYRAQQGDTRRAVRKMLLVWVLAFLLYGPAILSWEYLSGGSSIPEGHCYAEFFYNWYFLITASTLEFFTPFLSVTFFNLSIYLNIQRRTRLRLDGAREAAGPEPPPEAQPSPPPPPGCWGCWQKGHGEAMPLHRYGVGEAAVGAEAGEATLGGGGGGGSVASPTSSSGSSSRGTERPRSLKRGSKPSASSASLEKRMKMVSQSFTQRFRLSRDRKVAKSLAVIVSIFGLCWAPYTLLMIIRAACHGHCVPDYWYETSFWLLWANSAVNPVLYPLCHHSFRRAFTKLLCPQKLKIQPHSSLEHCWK
Beta-1 adrenergic receptor, sequence (P08588 whole entry): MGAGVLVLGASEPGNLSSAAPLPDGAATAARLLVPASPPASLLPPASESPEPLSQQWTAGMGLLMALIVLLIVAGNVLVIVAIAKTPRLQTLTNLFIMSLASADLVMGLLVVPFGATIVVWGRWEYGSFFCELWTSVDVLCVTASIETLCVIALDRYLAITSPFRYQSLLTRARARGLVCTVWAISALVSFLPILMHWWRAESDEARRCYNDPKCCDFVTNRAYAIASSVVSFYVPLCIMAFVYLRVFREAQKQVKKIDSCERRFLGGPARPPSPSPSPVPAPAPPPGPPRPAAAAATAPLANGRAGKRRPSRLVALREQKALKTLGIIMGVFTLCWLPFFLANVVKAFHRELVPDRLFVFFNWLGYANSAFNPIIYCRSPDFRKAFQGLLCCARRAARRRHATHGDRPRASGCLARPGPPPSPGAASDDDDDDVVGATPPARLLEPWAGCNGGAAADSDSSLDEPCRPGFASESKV
5-hydroxytryptamine receptor 2A, sequence (P28223 whole entry): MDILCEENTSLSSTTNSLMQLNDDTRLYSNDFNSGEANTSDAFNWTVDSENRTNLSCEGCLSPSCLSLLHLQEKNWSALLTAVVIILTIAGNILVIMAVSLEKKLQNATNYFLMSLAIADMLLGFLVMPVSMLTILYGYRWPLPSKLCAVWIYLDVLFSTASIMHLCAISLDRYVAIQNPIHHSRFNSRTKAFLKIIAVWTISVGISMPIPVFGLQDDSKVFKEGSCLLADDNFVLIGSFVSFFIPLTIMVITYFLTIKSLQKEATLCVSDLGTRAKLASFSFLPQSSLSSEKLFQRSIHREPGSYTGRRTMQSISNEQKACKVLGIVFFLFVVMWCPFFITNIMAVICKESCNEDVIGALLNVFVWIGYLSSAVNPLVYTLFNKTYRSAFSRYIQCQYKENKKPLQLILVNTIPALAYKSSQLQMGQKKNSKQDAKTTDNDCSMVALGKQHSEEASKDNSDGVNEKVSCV
Delta-type opioid receptor, sequence (P41143 whole entry): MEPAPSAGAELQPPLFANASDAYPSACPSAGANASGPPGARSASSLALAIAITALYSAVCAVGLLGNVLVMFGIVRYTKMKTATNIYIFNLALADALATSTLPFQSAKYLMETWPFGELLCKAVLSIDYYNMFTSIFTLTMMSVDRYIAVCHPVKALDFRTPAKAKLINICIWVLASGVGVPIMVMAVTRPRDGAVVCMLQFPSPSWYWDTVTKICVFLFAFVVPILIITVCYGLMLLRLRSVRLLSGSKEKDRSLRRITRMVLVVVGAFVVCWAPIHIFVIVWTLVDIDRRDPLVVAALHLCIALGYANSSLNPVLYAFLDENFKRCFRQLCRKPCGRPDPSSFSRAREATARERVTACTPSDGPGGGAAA
Sodium-dependent dopamine transporter, sequence (Q01959 whole entry): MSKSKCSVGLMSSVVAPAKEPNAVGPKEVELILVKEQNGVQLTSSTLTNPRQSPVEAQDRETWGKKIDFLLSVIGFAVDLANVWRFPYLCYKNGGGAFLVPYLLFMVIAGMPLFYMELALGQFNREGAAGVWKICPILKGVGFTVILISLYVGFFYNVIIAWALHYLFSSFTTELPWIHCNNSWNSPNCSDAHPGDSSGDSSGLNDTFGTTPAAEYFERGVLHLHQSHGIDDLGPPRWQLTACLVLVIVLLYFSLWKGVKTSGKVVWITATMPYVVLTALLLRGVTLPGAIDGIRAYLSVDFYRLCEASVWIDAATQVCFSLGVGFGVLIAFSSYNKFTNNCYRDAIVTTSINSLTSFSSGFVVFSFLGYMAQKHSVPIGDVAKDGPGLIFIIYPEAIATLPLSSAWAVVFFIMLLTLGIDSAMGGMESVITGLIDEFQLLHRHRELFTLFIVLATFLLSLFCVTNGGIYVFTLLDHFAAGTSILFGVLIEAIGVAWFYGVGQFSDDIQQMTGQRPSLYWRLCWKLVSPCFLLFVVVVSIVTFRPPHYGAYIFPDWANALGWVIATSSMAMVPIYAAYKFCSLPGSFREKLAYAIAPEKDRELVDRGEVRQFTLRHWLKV
Beta-2 adrenergic receptor, sequence (P07550 whole entry): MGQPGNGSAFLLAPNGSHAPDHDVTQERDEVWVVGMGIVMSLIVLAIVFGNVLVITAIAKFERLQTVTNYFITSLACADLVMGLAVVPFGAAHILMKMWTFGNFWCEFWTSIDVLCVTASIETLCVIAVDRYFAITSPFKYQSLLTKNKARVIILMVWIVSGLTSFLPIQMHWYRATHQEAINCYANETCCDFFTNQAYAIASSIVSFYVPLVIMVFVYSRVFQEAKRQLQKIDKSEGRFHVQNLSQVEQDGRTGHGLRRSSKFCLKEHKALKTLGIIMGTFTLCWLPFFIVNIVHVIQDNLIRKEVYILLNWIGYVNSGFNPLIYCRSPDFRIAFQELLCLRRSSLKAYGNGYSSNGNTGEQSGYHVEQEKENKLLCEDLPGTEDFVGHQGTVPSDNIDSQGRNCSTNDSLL

SMILES	AC50 [1] [µM]	also measured
C1N2CN3CN1CN(C2)C3 [METHENAMINE]	> 30	
CN1CCC2=C(C1)c1ccccc1Cc1ccccc12 [SETIPTILINE]	> 30	
CC(C)Cc1ccc(C(C)C(=O)NO)cc1 (configuration not stated) [IBUPROXAM]	> 30	
COc1ccc2c(c1)OC(C)(C)C(c1ccccc1)C2c1ccc(OCCN2CCCC2)cc1 (configuration not stated) [ORMELOXIFENE]	10.5	
CCOC(=O)CC(SP(=S)(OC)OC)C(=O)OCC (configuration not stated) [MALATHION]	> 30	
NS(=O)(=O)c1cc2c(cc1Cl)NC(C1CC3C=CC1C3)NS2(=O)=O (configuration not stated) [CYCLOTHIAZIDE]	> 30	
COc1ccc(CCC(C)NCC(O)c2ccc(O)c([S+](C)[O-])c2)cc1 (configuration not stated) [SULFINALOL]	> 30	
CCC(Cc1c(I)cc(I)c(N)c1I)C(=O)O (configuration not stated) [IOPANOIC ACID]	> 30	
CCC1(c2cccc(O)c2)CCCCN(C)C1 (configuration not stated) [MEPTAZINOL]	> 30	
CCCC1C(=O)N2C(N(C)C)=Nc3ccc(C)cc3N2C1=O (configuration not stated) [APAZONE]	> 30	
Nc1nc(-n2cc(C(=O)O)c(=O)c3cc(F)c(N4CC(O)C4)c(Cl)c32)c(F)cc1F [DELAFLOXACIN]	> 30	
O=C(c1ccc(F)c(F)c1Nc1ccc(I)cc1F)N1CC(O)([C@@H]2CCCCN2)C1 [COBIMETINIB]	17.4	
O=C1NCC2(CCN(CCc3ccccc3)CC2)O1 [FENSPIRIDE]	> 30	
CC(C(=O)O)c1ccc2c(c1)Cc1cccnc1O2 (configuration not stated) [PRANOPROFEN]	> 30	
O=C(O)CCCN1CCC(O[C@@H](c2ccc(Cl)cc2)c2ccccn2)CC1 [BEPOTASTINE]	> 30	
O=C(O)CCn1c2c(c3ccccc31)C[C@H](NS(=O)(=O)c1ccc(F)cc1)CC2 [RAMATROBAN]	> 30	AC50 [2]: > 30 µM; AC50 [3]: > 10 µM; AC50 [4]: > 30 µM; AC50 [5]: > 30 µM; AC50 [6]: > 10 µM; AC50 [7]: 24.8 µM; AC50 (Vasopressin V1a receptor): > 30 µM; AC50 [8]: > 30 µM; AC50 (Histamine H3 receptor): > 30 µM
O=C(NC1CCN(CCCCC2(C(=O)NCC(F)(F)F)c3ccccc3-c3ccccc32)CC1)c1ccccc1-c1ccc(C(F)(F)F)cc1 [LOMITAPIDE]	> 30	
CCOc1ccc(/C=C2\NCCc3cc(OCC)c(OCC)cc32)cc1OCC [DROTAVERINE]	> 30	
C[C@@H]1C[C@H]2[C@@H]3C[C@H](F)C4=CC(=O)C(Cl)=C[C@]4(C)[C@@]3(F)[C@@H](O)C[C@]2(C)[C@@]1(O)C(=O)CO [HALOMETASONE]	> 30	
NCc1ccccc1CC(=O)N[C@@H]1C(=O)N2C(C(=O)O)=C(CSc3nnnn3CC(=O)O)CS[C@H]12 [CEFORANIDE]	> 30	
Nc1ccc(C(=O)O)cc1 [AMINOBENZOIC ACID]	> 30	
O=C(Nc1ccccc1)OCC(CN1CCCCC1)OC(=O)Nc1ccccc1 (configuration not stated) [DIPERODON]	> 30	AC50 [2]: > 10 µM; AC50 [9]: > 30 µM; AC50 [3]: > 10 µM; AC50 [4]: 6.69 µM; AC50 [5]: > 10 µM; AC50 [6]: > 30 µM; AC50 [7]: 15 µM; AC50 (Vasopressin V1a receptor): > 10 µM; AC50 [10]: > 30 µM; AC50 [8]: > 10 µM; AC50 (Histamine H3 receptor): > 10 µM
